Reference: patent publication EP4778920A1, “INDAZOLONE COMPOUND, PREPARATION METHOD THEREFOR, PHARMACEUTICAL COMPOSITION, AND USE” (Shanghai Institute of Materia Medica, Chinese Academy of …, priority 2023, dated 2025)
Read-outs that look alike come from different tables or passages of the source.

Assays:
MM.1S cells = test: MM.1S cell proliferation inhibition (MTS assay); type: cell-based; details: Homo sapiens, MM1.S, 168 h, 7 days incubation, read-out: MM1.S (IC50, Inhibitory Activity of Compounds on MM.1S Cell Proliferation)
Method: The cell concentration was diluted according to a 7-day incubation period, and 180 µL of cell suspension was added to each well of a 96-well plate, with 20,000 cells per well. […] The test compounds were prepared from a 10 mM stock solution and serially diluted in a 5-fold gradient, and 20 µL of the diluted solution was added to each compound-treated well (final DMSO concentration also 0.2%). The cells were incubated in a 37 °C, 5% CO2 incubator for 7 days. After incubation, the reaction solution was prepared according to the MTS assay kit instructions (Promega, G5430), and 20 µL was added to each well. The plate was incubated at 37 °C with 5% CO2 for 3-4 hours. The absorbance at 490 nm was measured using a microplate reader, and the absorbance at 690 nm was used as the background value. […] The IC50 values for cell proliferation inhibition were determined using GraphPad Prism 5.0. Each experiment was repeated three times, and three parallel replicates were performed in each experiment to calculate the mean value and standard deviation.
Inhibitory Activity of Compounds on MM.1S Cell Proliferation

Mino cells = test: Mino cell proliferation inhibition (MTS assay); type: cell-based; details: Homo sapiens, 72 h, 3 days incubation, read-out: Mino (IC50, Inhibitory Activity of Compounds on Mino Cell Proliferation)
Method: The cell concentration was diluted according to a 3-day incubation period, and 90 µL of cell suspension was added to each well of a 96-well plate, resulting in 8,000 cells per well. […] The test compounds were prepared from a 10 mM stock solution and serially diluted in a five-fold gradient. Similarly, 10 µL of the diluted compound solution was added to each compound-treated well (final DMSO concentration 0.2%).
The cells were incubated in a 37 °C, 5% CO2 incubator for 3 days. After incubation, the reaction solution was prepared according to the MTS assay kit instructions (Promega, G5430), and 20 µL was added to each well. The plate was further incubated at 37 °C with 5% CO2 for 3-4 hours. The absorbance at 490 nm was measured using a microplate reader, and the absorbance at 690 nm was used as the background value. The final raw data were calculated as OD490 - OD690. […] The IC50 values for cell proliferation inhibition were determined using GraphPad Prism 5.0. Each experiment was repeated three times, and three parallel replicates were performed in each experiment to calculate the mean value and standard deviation.
Table 2. Inhibitory Activity of Compounds on Mino Cell Proliferation

MV-4-11 cells = test: MV-4-11 cell proliferation inhibition (MTS assay); type: cell-based; details: Homo sapiens, MV4-11, 168 h, 7 days incubation, MTS, read-out: MV-411 (IC50, Inhibitory Activity of Compounds on MV-4-11 Cell Proliferation)
Method: MV-4-11 cells were cultured in IMDM medium supplemented with 10% fetal bovine serum and collected. The cell concentration was diluted according to a 7-day incubation period, and 180 µL of cell suspension was added to each well of a 96-well plate, resulting in 2,000 cells per well. […] The test compounds were prepared from a 10 mM stock solution and serially diluted in a five-fold gradient, and 20 µL of the diluted compound solution was added to each compound-treated well (final DMSO concentration 0.2%). The cells were incubated in a 37 °C, 5% CO2 incubator for 7 days. After incubation, the reaction solution was prepared according to the MTS assay kit instructions (Promega, G5430), and 20 µL was added to each well. The plate was further incubated at 37 °C with 5% CO2 for 3-4 hours. The absorbance at 490 nm was measured using a microplate reader, and the absorbance at 690 nm was used as the background value. The final raw data were calculated as OD490 - OD690. […] The IC50 values for cell proliferation inhibition were determined using GraphPad Prism 5.0. Each experiment was repeated three times, and three parallel replicates were performed in each experiment to calculate the mean value and standard deviation.
Table 3. Inhibitory Activity of Compounds on MV-4-11 Cell Proliferation

CRBN/DDB1 = CRBN/DDB1 (Homo sapiens, UniProt Q96SW2); test: CRBN/DDB1 binding TR-FRET assay; details: read-out: AVE_Inhibition% (1 µM)
Method: • 1. 0.1 µL of the reference solution was added to a 384-well assay plate. The final detection concentration was 100 µM, followed by 3-fold serial dilution for 10 points. • 2. 2.5 µL of CRBN/DDB1 was added to the 384-well plate and centrifuged at 1000 rpm for 1 minute. • 3. 2.5 µL of Thalidomide-BODIPY was added to the plate, centrifuged at 1000 rpm for 1 minute, and incubated at 25 °C for 15 minutes. • 4. 5 µL of His-Tb was added to the plate, centrifuged at 1000 rpm for 1 minute, and incubated at 25 °C for 60 minutes. • 5. The TR-FRET signal was measured using a BMG plate reader with a fluorescence ratio of 520/490 nm.
Table 4. Inhibition Rate of Compounds on CRBN/DDB1 Binding

[1] = cited from earlier work

Chain of CRBN/DDB1 (Q96SW2 whole entry, species assumed): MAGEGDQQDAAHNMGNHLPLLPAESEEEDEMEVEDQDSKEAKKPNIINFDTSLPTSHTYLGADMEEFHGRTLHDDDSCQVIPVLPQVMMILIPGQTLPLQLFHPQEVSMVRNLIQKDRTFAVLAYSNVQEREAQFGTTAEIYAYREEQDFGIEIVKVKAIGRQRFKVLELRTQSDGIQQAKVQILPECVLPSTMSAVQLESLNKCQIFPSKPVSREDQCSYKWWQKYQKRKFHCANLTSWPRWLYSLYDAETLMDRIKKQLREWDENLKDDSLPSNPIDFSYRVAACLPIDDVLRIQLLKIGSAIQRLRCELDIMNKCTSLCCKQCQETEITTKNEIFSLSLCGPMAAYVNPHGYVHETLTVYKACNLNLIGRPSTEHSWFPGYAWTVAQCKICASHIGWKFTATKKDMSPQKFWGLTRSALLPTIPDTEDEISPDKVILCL
Chain of CRBN/DDB1 (Q16531 whole entry partner, species assumed): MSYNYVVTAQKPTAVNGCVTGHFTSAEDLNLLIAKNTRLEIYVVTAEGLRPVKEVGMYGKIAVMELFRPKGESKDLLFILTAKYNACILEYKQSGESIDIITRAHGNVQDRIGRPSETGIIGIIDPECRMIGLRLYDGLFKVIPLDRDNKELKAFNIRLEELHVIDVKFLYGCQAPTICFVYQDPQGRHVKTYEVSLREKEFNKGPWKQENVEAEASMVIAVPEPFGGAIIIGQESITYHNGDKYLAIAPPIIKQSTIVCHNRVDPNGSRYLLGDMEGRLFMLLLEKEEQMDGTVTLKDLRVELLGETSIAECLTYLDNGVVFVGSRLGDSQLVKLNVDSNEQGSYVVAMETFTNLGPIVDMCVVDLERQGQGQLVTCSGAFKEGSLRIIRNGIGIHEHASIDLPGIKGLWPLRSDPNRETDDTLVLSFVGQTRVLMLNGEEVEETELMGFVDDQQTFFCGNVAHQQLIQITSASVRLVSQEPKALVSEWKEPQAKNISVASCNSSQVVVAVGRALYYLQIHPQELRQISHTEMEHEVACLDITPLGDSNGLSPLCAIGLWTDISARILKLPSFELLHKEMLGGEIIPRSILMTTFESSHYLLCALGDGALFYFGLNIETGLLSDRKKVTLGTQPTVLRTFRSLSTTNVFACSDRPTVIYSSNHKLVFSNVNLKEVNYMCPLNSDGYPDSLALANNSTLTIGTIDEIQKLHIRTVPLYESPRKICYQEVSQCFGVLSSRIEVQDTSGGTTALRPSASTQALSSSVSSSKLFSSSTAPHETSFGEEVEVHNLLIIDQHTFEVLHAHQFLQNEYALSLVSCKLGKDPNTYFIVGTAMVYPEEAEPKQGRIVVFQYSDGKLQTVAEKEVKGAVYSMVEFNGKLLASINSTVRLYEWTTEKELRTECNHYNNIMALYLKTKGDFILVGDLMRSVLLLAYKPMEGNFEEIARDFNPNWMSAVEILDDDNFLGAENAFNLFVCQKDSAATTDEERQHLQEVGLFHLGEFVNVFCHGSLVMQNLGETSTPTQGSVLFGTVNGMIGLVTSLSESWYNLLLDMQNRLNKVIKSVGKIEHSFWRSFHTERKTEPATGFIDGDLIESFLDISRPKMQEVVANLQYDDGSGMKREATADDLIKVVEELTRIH

Row | IC50 (MM.1S cells) [nM] | IC50 (MV-4-11 cells) [nM] | inhibition at 1 µM (CRBN/DDB1) [%] | Structure (SMILES) | IC50 (Mino cells) [nM] | hydrolysis half-life ([1]; pH 7) | hydrolysis half-life ([1]; pH 7.4) [h] | hydrolysis half-life ([1]; pH 8) [h]
1 | < 200 | < 200 | > 90 | O=C1CCC(n2[nH]c3c(OCc4ccc(CN5CCN(c6cccc(Cl)c6)CC5)cc4)cccc3c2=O)C(=O)N1 (stereo not shown) [Compound D8, 3-(7-((4-((4-(3-chlorophenyl)piperazin-1-yl)methyl)benzyl)oxy)-3-oxo-1,3-dihydro-2H-indazol-2-yl)piperidine-2,6-dione] | < 200 | – | – | –
2 | < 200 | < 200 | > 90 | O=C1CCC(n2[nH]c3c(OCc4ccc(CN5CCN(c6ccc(Cl)cc6)CC5)cc4)cccc3c2=O)C(=O)N1 (stereo not shown) [Compound D9, 3-(7-((4-((4-(4-chlorophenyl)piperazin-1-yl)methyl)benzyl)oxy)-3-oxo-1,3-dihydro-2H-indazol-2-yl)piperidine-2,6-dione] | < 200 | – | – | –
3 | < 200 | < 200 | > 90 | O=C1CCC(n2[nH]c3c(OCc4ccc(CN5CCN(c6ccc(F)cc6)CC5)cc4)cccc3c2=O)C(=O)N1 (stereo not shown) [Compound D10, 3-(7-((4-((4-(4-fluorophenyl)piperazin-1-yl)methyl)benzyl)oxy)-3-oxo-1,3-dihydro-2H-indazol-2-yl)piperidine-2,6-dione] | < 200 | – | – | –
4 | < 200 | < 200 | > 90 | N#Cc1ccc(N2CCN(Cc3ccc(COc4cc(F)cc5c(=O)n(C6CCC(=O)NC6=O)[nH]c45)cc3)CC2)c(F)c1 (stereo not shown) [Compound D14, 4-(4-(4-(((2-(2,6-dioxopiperidin-3-yl)-5-fluoro-3-oxo-2,3-dihydro-1H-indazol-7-yl)oxy)methyl)benzyl)piperazin-1-yl)-3-fluorobenzonitrile] | < 200 | – | – | –
5 | < 200 | < 200 | 50 to 90 | O=C1CCC(n2[nH]c3c(OCc4ccc(CN5CCN(c6ccc(F)cc6F)CC5)cc4)cc(F)cc3c2=O)C(=O)N1 (stereo not shown) [Compound D15, 3-(7-((4-((4-(2,4-difluorophenyl)piperazin-1-yl)methyl)benzyl)oxy)-5-fluoro-3-oxo-1,3-dihydro-2H-indazol-2-yl)piperidine-2,6-dione] | < 200 | – | – | –
6 | < 200 | < 200 | > 90 | O=C1CCC(n2[nH]c3c(OCc4ccc(CN5CCN(c6ccc(Cl)cc6)CC5)cc4)cc(F)cc3c2=O)C(=O)N1 (stereo not shown) [Compound D18, 3-(7-((4-((4-(4-chlorophenyl)piperazin-1-yl)methyl)benzyl)oxy)-5-fluoro-3-oxo-1,3-dihydro-2H-indazol-2-yl)piperidine-2,6-dione] | < 200 | – | – | –
7 | < 200 | < 200 | > 90 | O=C1CCC(n2[nH]c3c(OCc4ccc(CN5CCN(c6ccc(F)cc6)CC5)cc4)cc(F)cc3c2=O)C(=O)N1 (stereo not shown) [Compound D19, 3-(5-Fluoro-7-((4-((4-(4-fluorophenyl)piperazin-1-yl)methyl)benzyl)oxy)-3-oxo-1,3-dihydro-2H-indazol-2-yl)piperidine-2,6-dione] | < 200 | – | – | –
8 | > 10000 | > 20000 | < 50 | CCn1c2c(OCc3ccc(CN4CCOCC4)cc3)cccc2c(=O)n1C1CCC(=O)NC1=O (stereo not shown) [Compound D23, 3-(1-Ethyl-7-((4-(morpholinomethyl)benzyl)oxy)-3-oxo-1,3-dihydro-2H-indazol-2-yl)piperidine-2,6-dione] | > 10000 | – | – | –
9 | 1000 to 10000 | 1000 to 20000 | < 50 | CCn1c2c(OCc3ccc(CN4CCN(c5ccc(C#N)cc5F)CC4)cc3)cccc2c(=O)n1C1CCC(=O)NC1=O (stereo not shown) [Compound D25] | > 10000 | – | – | –
10 | > 10000 | > 20000 | < 50 | CC(C)(C)NC(=O)c1ccc2c(=O)n(C3CCC(=O)NC3=O)[nH]c2c1 (stereo not shown) [Compound D40, N-(tert-butyl)-2-(2,6-dioxopiperidin-3-yl)-3-oxo-2,3-dihydro-1H-indazole-6-carboxamide] | > 10000 | – | – | –
11 | > 10000 | 1000 to 20000 | < 50 | O=C1CC[C@H](n2[nH]c3cc(CNC(=O)C(F)(F)c4ccc(Cl)cc4)ccc3c2=O)C(=O)N1 [Compound D44, (S)-2-(4-chlorophenyl)-N-((2-(2,6-dioxopiperidin-3-yl)-3-oxo-2,3-dihydro-1H-indazol-6-yl)methyl)-2,2-difluoroacetamide] | > 10000 | – | – | –
12 | > 10000 | > 20000 | < 50 | O=C1CCC(n2[nH]c3cc(C(=O)NCc4ccccc4)ccc3c2=O)C(=O)N1 (stereo not shown) [Compound D46, N-Benzyl-2-(2,6-dioxopiperidin-3-yl)-3-oxo-2,3-dihydro-1H-indazol-6-carboxamide] | > 10000 | – | – | –
13 | 200 to 1000 | 200 to 1000 | < 50 | CCc1ccc([C@H](C)NC(=O)c2ccc3c(=O)n(C4CCC(=O)NC4=O)[nH]c3c2)cc1 (stereo partly drawn) [Compound D47, 2-(2,6-Dioxopiperidin-3-yl)-N-((S)-1-(4-ethylphenyl)ethyl)-3-oxo-2,3-dihydro-1H-indazol-6-carboxamide] | < 200 | – | – | –
14 | – | – | – | O=C1CCC(N2C(=O)c3ccccc3C2=O)C(=O)N1 (stereo not shown) [thalidomide] | – | about 11 hours | ~5 | ~1.25
